The source of these data is ChEMBL document CHEMBL4665648, “Potent and selective inhibitors of receptor-interacting protein kinase 1 that lack an aromatic back pocket group” (Bioorg Med Chem Lett, 2019).

The nature of data set [1]: Inhibition of necroptosis in human HT-29 cells assessed as reduction in TNFalpha/BV6/zVAD-fmk-induced cell death incubated for 18 hrs by Cell Titer Glo luminescent cell viability assay. It is filed as functional, cell-based. The following applies: HT-29, 18 h. (In general: ATP-based viability assays read luminescence as a measure of living cells.)
The target in data set [2] is T1, Receptor-interacting serine/threonine-protein kinase 1 (Homo sapiens, UniProt Q13546).
T1 sequence (Q13546 whole entry): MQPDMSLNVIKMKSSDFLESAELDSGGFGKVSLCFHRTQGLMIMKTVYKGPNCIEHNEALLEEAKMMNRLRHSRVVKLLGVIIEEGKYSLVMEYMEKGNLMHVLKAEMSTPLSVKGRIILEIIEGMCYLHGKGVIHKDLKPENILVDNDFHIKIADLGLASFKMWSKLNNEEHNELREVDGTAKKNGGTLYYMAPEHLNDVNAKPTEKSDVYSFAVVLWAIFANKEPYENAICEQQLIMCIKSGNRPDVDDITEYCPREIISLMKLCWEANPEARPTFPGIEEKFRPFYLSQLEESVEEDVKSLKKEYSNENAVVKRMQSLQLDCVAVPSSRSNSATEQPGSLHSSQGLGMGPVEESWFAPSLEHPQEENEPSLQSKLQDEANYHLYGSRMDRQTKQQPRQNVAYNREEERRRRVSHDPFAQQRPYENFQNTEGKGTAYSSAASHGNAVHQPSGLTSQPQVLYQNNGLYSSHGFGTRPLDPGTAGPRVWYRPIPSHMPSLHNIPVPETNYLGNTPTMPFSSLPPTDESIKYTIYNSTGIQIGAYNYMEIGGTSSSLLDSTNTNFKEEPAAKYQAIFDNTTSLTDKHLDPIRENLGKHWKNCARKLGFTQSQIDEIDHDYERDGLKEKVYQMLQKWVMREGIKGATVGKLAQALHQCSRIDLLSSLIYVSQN
The data set is described as follows: Inhibition of recombinant human His/GST-tagged RIPK1 (2 to 257 residues) expressed in insect expression system incubated for 2 hrs by fluorescence polarization assay. The settings on record: read-out: Ki(app). In general terms: In fluorescence polarisation assays a small probe gives low polarisation when free and higher when bound to something large.

A short description of data set [3]: Kinetic solubility of compound at pH 7.4. It is filed as physicochemical. The settings on record: buffer, read-out: Kinetic_solubility.
The nature of data set [4]: Lipophilicity, logD of compound at pH 7.4. It is filed as physicochemical. The settings on record: buffer.

The structures appear in SMILES notation. Converted amounts (≈) assume the structure as drawn. Bounds are passed on as bounds.

One may read the EC50 as the concentration that produces a half-maximal response. As for `C[C@H]1CCc2[nH]nc(C(=O)N[C@H]3COc4ccccc4N(C)C3=O)c2C1`, the EC50 in data set [1] was determined as 400 nM. Turning to `CN1C(=O)[C@@H](NC(=O)c2nnc[nH]2)COc2ccccc21`, the EC50 in data set [1] was more than 20000 nM. The Ki in data set [2] was more than 10000 nM.

Consider `CN1C(=O)[C@@H](NC(=O)c2n[nH]c3c2CC(C)(C)CC3)COc2ccccc21`, for which, in data set [1], the half-maximal effective concentration (EC50) is 170 nM. Besides, the Ki in data set [2] was 42 nM. On to `CN1C(=O)[C@@H](NC(=O)c2nn(C)c3c2C[C@H](C(F)(F)F)CC3)COc2ccccc21`, for which the EC50 in data set [1] amounted to 500 nM. In data set [2], the Ki is 63 nM.

Turning to `CN1C(=O)[C@@H](NC(=O)c2n[nH]c3c2C2CC2CC3)COc2ccccc21` (single isomer, unassigned; diastereomer 1), in data set [1], the concentration giving a half-maximal response (EC50) amounted to 6900 nM. Broadly, the logD is lipophilicity at a set pH, counting ionised and neutral species. A low value points to lower lipophilicity. In the case of `CN1C(=O)[C@@H](NC(=O)c2nnn3c2CC(C(F)(F)C(F)(F)F)CC3)COc2ccccc21` (mixture of isomers), the EC50 in data set [1] came to 64 nM. In data set [3], the solubility kinetic was 57.1 µM. For the same molecule, in data set [4], the logD turned out to be 2.

On to `CC(C)c1cnc2[nH]nc(C(=O)N[C@H]3COc4ccccc4N(C)C3=O)c2c1`, for which the 50% effective concentration (EC50) in data set [1] came out at 390 nM. Besides, the solubility kinetic in data set [3] turned out to be 3.4 µM (≈ 1.29 µg/mL). In data set [4], this molecule came in with a logD of 3.5.

For `CN1C(=O)[C@@H](NC(=O)c2n[nH]c3c2CC(c2ccccc2)CC3)COc2ccccc21` (mixture of isomers), the EC50 in data set [1] was 520 nM. Turning to `CN1C(=O)[C@@H](NC(=O)c2n[nH]c3ccc(C(F)(F)F)cc23)COc2ccccc21`, in data set [1], the EC50 is 28 nM. Also, the Ki in data set [2] was 5 nM. For the molecule `CN1C(=O)[C@@H](NC(=O)c2nnn3c2C[C@H](C(F)(F)F)CC3)COc2ccccc21`, the EC50 in data set [1] was 210 nM. Moreover, the solubility kinetic in data set [3] came to 99 µM (≈ 40.5 µg/mL). In addition, the log distribution coefficient (logD) in data set [4] amounted to 1.5. `C[C@@H]1CCc2[nH]nc(C(=O)N[C@H]3COc4ccccc4N(C)C3=O)c2C1`: the EC50 in data set [1] was 130 nM. On to `CN1C(=O)[C@@H](NC(=O)c2nnc3ccc(C(F)(F)F)nn23)COc2ccccc21`, for which, in data set [1], the EC50 came out at 2400 nM. Moreover, the solubility kinetic in data set [3] is 160 µM (≈ 65 µg/mL). In data set [4], this molecule showed a logD of 1. Turning to `CN1C(=O)[C@@H](NC(=O)c2n[nH]c3c2CCC2(CC2)C3)COc2ccccc21`, the EC50 in data set [1] was more than 20000 nM. For the molecule `CN1C(=O)[C@@H](NC(=O)c2n[nH]c3ncc(C(F)(F)F)cc23)COc2ccccc21`, the concentration giving a half-maximal response (EC50) in data set [1] amounted to 580 nM. For the same molecule, in data set [3], the solubility kinetic was 59 µM (≈ 23.9 µg/mL). In data set [4], this molecule yielded a logD of 3.3. Taken in the same sequence, the figures for `CN1C(=O)[C@@H](NC(=O)c2nnc3ccc(C(F)(F)C(F)(F)F)nn23)COc2ccccc21` were 130 nM, 164 µM (≈ 74.8 µg/mL) and 1.6. In the case of `CN1C(=O)[C@@H](NC(=O)c2n[nH]c3c2CCCC3)COc2ccccc21`, the EC50 in data set [1] is 15000 nM. Consider `CN1C(=O)[C@@H](NC(=O)c2n[nH]c3c2C[C@H](C(F)(F)F)CC3)COc2ccccc21`, for which the concentration giving a half-maximal response (EC50) in data set [1] amounted to 43 nM. In data set [2], the Ki amounted to 7 nM. With `CN1C(=O)[C@@H](NC(=O)c2ncn3ccc(C(F)(F)F)cc23)COc2ccccc21`, the concentration for a half-maximal effect (EC50) in data set [1] is 12 nM. Besides, the Ki in data set [2] stood at 5 nM. On to `CN1C(=O)[C@@H](NC(=O)c2n[nH]c3c2CCC(C)(C)C3)COc2ccccc21`, for which the concentration for a half-maximal effect (EC50) in data set [1] is more than 20000 nM. Besides, the Ki in data set [2] is more than 10000 nM. In the case of `CN1C(=O)[C@@H](NC(=O)c2n[nH]c3c2C[C@H](C(C)(C)C)CC3)COc2ccccc21`, in data set [1], the concentration giving a half-maximal response (EC50) is 290 nM. On to `CN1C(=O)[C@@H](NC(=O)c2n[nH]c3c2CC(n2cccn2)CC3)COc2ccccc21` (mixture of isomers), for which, in data set [1], the EC50 worked out at 4100 nM. On the same count and under the same terms, then `CN1C(=O)[C@@H](NC(=O)c2n[nH]c3c2CC2CC2C3)COc2ccccc21` (mixture of isomers), with 7000 nM.
